# Data reported in patent US20250177285A1, “BANANA STEM SAP COMPOSITIONS AND METHODS OF USE THEREOF” (Tano Pharmaceuticals Inc., priority 2023, published 2025).
# Marks after values point to notes of the source that are not given here. Residues, ends and D or L forms follow the SMILES beside them.
# Columns and labels:
# [1] = tested on: Clostridium collagenase IV (a generic metalloproteinase); experiment: Metalloproteinase (collagenase) activity assay, Enzchek kit, quenched fluorescent gelatin; format: biochemical
# Protocol: (§1) Test Materials. Test materials (Table 8) were stored at +4° C. and were diluted in distilled sterile water immediately before testing. All experimental conditions were tested in biological triplicates.
# Metalloproteinase activity assay. The activity of the test materials towards collagenase proteolytic activity was examined by adding dilutions of test articles to the Enzchek kit reaction mixture (Molecular Probes/Invitrogen/ThermoFisher). Clostridium collagenase IV (a generic metalloproteinase) was used as the protease and quenched fluorescent gelatin was the substrate. Phenanthroline, a potent collagenase inhibitor was used as positive control at 1000 μM. The kinetics of the release of the digested, fluorescent gelatin were measured at excitation/emission wavelengths of 485/530 nm with the SpectraMax i3x microplate reader. Fluorescence readings were adjusted by subtracting the values in wells containing no collagenase and were expressed in arbitrary fluorescence units and as % of water-treated controls.
# (§2) Statistical analysis. Statistical significance threshold was established as minimum 20% modulation and p value <0.05 as determined by two-tailed Student test.
# [2] = tested on: type I collagen output by normal human neonatal dermal fibroblasts; experiment: Type I collagen output, sandwich ELISA of conditioned medium; format: cell-based; conditions: for effect on type I collagen (in words): tested range
# Protocol: (§3) Test materials. Test materials (Table 2) were stored at +4° C. and were diluted in distilled sterile water immediately before testing. Cells & experimental procedures. Normal dermal human neonatal dermal fibroblasts (ScienCell; […] The next day (Day 1), test materials, reference substances [MAP (100 μg/ml), MAP (50 μg/ml) and niacinamide (400 μg/ml, 250 μg/ml and 80 μg/ml, based on PMC7950568 and PMC8622652)] and negative control (H2O) were added, and cell culture was pursued for three additional days, afterward the cell culture conditioned medium was used for type I & IV collagen quantification, while cells were formalin-fixed and type III collagen was measured by direct ELISA. The effect of the test articles on cell numbers was determined using the sulforhodamine B method (Table 3). MAP: magnesium ascorbyl phosphate. All colorimetric measurements were acquired using multi-mode SpectraMax i3x platform (Molecular Devices, San Jose CA) assisted with SoftMax 7.0.3. PRO. 21 software. […] [table]
# [3] = tested on: type III collagen output by normal human neonatal dermal fibroblasts; experiment: Type III collagen, direct ELISA on formalin-fixed cells; format: cell-based; conditions: for effect on type III collagen (in words): tested range
# Protocol: as §3
# [4] = tested on: type IV collagen output by normal human neonatal dermal fibroblasts; experiment: Type IV collagen output, ELISA of conditioned medium; format: cell-based; conditions: for effect on type IV collagen (in words): tested range
# Protocol: as §3
# [5] = tested on: normal human neonatal dermal fibroblasts; experiment: Cell numbers, sulforhodamine B method; format: cell-based
# Protocol: as §3
# [6] = biological target: T1, elastase (Sus scrofa, UniProt P00772); experiment: Elastase activity assay; format: biochemical, human
# T1 construct: purchased Promega V1891
# Protocol: as §1
# Elastase activity assay. The reaction was initiated by adding 10 μl of 20 μg/ml elastase enzyme (Promega, cat. #V1891, lot #409147) to the assay mixture [10 mM Tris-HCl pH 7.5+/−0.5, 1 mg/ml elastase substrate VIII (Suc-Ala-Ala-Ala-pNA)] containing different experimental conditions, and the reaction kinetics were monitored at room temperature by measuring absorbance at 405 nm in the SpectraMax i3x microplate reader. Sterile distilled water was the negative, and EI III (Calbiochem cat. #324745) was the positive control. […]. Colorimetric readings were adjusted by subtracting the absorbance in wells containing the same experimental conditions but without elastase and were expressed as % of water control.
# as §2
# T1 sequence (P00772 27-266): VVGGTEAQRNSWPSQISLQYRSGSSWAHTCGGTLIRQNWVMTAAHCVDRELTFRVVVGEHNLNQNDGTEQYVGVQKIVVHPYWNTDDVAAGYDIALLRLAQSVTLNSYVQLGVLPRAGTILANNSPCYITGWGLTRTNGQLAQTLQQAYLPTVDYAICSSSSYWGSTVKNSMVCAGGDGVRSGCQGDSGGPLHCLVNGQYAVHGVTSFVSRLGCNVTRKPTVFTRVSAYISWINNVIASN
smiles,measurement,setting,value
c1cnc2c(c1)ccc1cccnc12 [Phenanthroline],MP activity (% CTR),"[1]; positive control at 1000 μM, t = 20 min",0* % CTR
same,inhibitory effect on collagenase (MP) / generic metalloproteinase activity (in words),[1]; tested range,total inhibitory activity
"O=C1O[C@H]([C@@H](O)CO)C([O-])=C1OP(=O)([O-])[O-].O=C1O[C@H]([C@@H](O)CO)C([O-])=C1OP(=O)([O-])[O-].[Mg+2].[Mg+2].[Mg+2] [MAP, magnesium ascorbyl phosphate]",Type I collagen (% Control),[2]; 50 ug/mL,148 % Control
same,Type I collagen (% Control),[2]; 100 ug/mL,166 % Control
same,effect on type I collagen (in words),[2],strong stimulatory response
same,Type III collagen (% Control),[3]; 50 ug/mL,1977 % Control
same,Type III collagen (% Control),[3]; 100 ug/mL,1874 % Control
same,effect on type III collagen (in words),[3],strong stimulatory response
same,Type IV collagen (% Control),[4]; 50 ug/mL,694 % Control
same,Type IV collagen (% Control),[4]; 100 ug/mL,703 % Control
same,effect on type IV collagen (in words),[4],strong stimulatory response
same,Cell Numbers (% Control),[5]; 50 ug/mL,130 % Control
same,Cell Numbers (% Control),[5]; 100 ug/mL,139 % Control
NC(=O)c1cccnc1 [niacinamide],Type I collagen (% Control),[2]; 80 ug/mL,94 % Control
same,Type I collagen (% Control),[2]; 250 ug/mL,130 % Control
same,Type I collagen (% Control),[2]; 400 ug/mL,130 % Control
same,type I collagen increase / upregulation (description summary),[2]; concentration not given,up to 130%
same,effect on type I collagen (in words),[2],upregulated type I collagen at the two highest tested concentrations
same,Type III collagen (% Control),[3]; 80 ug/mL,106 % Control
same,Type III collagen (% Control),[3]; 250 ug/mL,106 % Control
same,Type III collagen (% Control),[3]; 400 ug/mL,111 % Control
same,effect on type III collagen (in words),[3],no effect
same,Type IV collagen (% Control),[4]; 80 ug/mL,88 % Control
same,Type IV collagen (% Control),[4]; 250 ug/mL,86 % Control
same,Type IV collagen (% Control),[4]; 400 ug/mL,104 % Control
same,effect on type IV collagen (in words),[4],no effect
same,Cell Numbers (% Control),[5]; 80 ug/mL,99 % Control
same,Cell Numbers (% Control),[5]; 250 ug/mL,99 % Control
same,Cell Numbers (% Control),[5]; 400 ug/mL,96 % Control
COC(=O)CCC(=O)N[C@@H](C)C(=O)N[C@@H](C)C(=O)N1CCC[C@H]1C(=O)N[C@H](C(=O)CCl)C(C)C [El III] (HELM PEPTIDE1{[COC(=O)CCC(=O)[*:2]].A.A.P.V.[ClC[*:1]]}$$$$V2.0),Elastase activity (% Control),"[6]; 1 ug/mL, t = 20 min",9*** % Control
same,suppressive effect on elastase activity (in words),[6]; tested range,nearly complete inhibitory activity
